Measurements taken from US9771334B2, “Triketone compound and preparation method and use thereof” (SHANDONG CYNDA CHEMICAL CO., LTD., priority 2013, dated 2017).

Key:
Assay in all cases: Herbicidal activity, pot culture method (primary and secondary screening test)
Type in all cases: in vivo
Details in all cases: primary screening, pot culture, 150 g/ha, sprayed at 3-leaf stage, result 15 days later
digitaria sanguinalis = system: digitaria sanguinalis
Description: (§1) This test example is for describing the herbicidal activity inhibition ratio (%) (the dose is 150 g/ha) of the compound with a structure shown in Formula (I). Primary screening test (pot culture method): The test targets are abutilon theophrasti, digitaria sanguinalis, amaranthus retroflexus, echinochloa crusgalli, eclipta prostrata and setaria viridis. Take flowerpots with an inner diameter of 6 cm, put composite soil (vegetable garden soil:seedling matrix=1:2, v/v) into them till 3⁄4 of flowerpot height, directly sow the above six weed targets (budding rate>85%), cover them with 0.2 cm thick soil, and keep them for future use when the weeds grow to 3-leaf stage. Each compound is dissolved in N,N-dimethylformamide at a dose of 150 g/ha and diluted with distilled water into a 0.2 g/L solution. The solution is sprayed through an automatic spray tower. After the solution on weed leaves is aired dry, the flowerpots are moved into a greenhouse for cultivation. The result is investigated 15 days later. By the same method adopted in primary screening test, a secondary screening test is done on some typical compounds, such as: 5, 6, 20, 21, 23, 34, 47, 65, 66, 70 and 91 at a reduced dose, and the test result is compared with mesotrione which is commercially available and has a good herbicidal effect. The test method is same as that adopted in primary screening test. Mesotrione is bought from Hubei […] Chemical Co., Ltd.

setaria viridis = system: setaria viridis
Description: as §1

amaranthus retroflexus = system: amaranthus retroflexus
Description: as §1

eclipta prostrata = system: eclipta prostrata
Description: as §1

abutilon theophrasti = system: abutilon theophrasti
Description: as §1

echinochloa crusgalli = system: echinochloa crusgalli
Description: as §1

Structure (SMILES): Cn1c(=O)n(-c2ccc(Cl)cc2)c(=O)c2cc(C(=O)C3=C(O)CCCC3=O)ccc21 [Compound 1, 3-(4-chlorphenyl)-6-[(2-hydroxy-6-oxo-1-cyclohexenyl)carbonyl]-1-methylquinazoline-2,4(1H,3H)-dione]
- herbicidal activity inhibition ratio (%), Digitaria sanguinalis (digitaria sanguinalis): 90%
- herbicidal activity inhibition ratio (%), Setaria viridis (setaria viridis): 100%
- herbicidal activity inhibition ratio (%), Amaranthus retroflexus (amaranthus retroflexus): 90%
- herbicidal activity inhibition ratio (%), Eclipta prostrata (eclipta prostrata): 85%
- herbicidal activity inhibition ratio (%), Abutilon theophrasti (abutilon theophrasti): 90%
- herbicidal activity inhibition ratio (%), Echinochloa crusgalli (echinochloa crusgalli): 90%

Structure (SMILES): Cn1c(=O)n(-c2ccc(Cl)cc2)c(=O)c2cc(C(=O)C3=C(O)CC(C)(C)CC3=O)ccc21 [Compound 2]
- herbicidal activity inhibition ratio (%), Digitaria sanguinalis (digitaria sanguinalis): 90%
- herbicidal activity inhibition ratio (%), Setaria viridis (setaria viridis): 80%
- herbicidal activity inhibition ratio (%), Amaranthus retroflexus (amaranthus retroflexus): 95%
- herbicidal activity inhibition ratio (%), Eclipta prostrata (eclipta prostrata): 75%
- herbicidal activity inhibition ratio (%), Abutilon theophrasti (abutilon theophrasti): 100%
- herbicidal activity inhibition ratio (%), Echinochloa crusgalli (echinochloa crusgalli): 80%

Structure (SMILES): Cn1c(=O)n(-c2cccc(Cl)c2)c(=O)c2cc(C(=O)C3=C(O)CCCC3=O)ccc21 [Compound 3]
- herbicidal activity inhibition ratio (%), Digitaria sanguinalis (digitaria sanguinalis): 70%
- herbicidal activity inhibition ratio (%), Setaria viridis (setaria viridis): 100%
- herbicidal activity inhibition ratio (%), Amaranthus retroflexus (amaranthus retroflexus): 100%
- herbicidal activity inhibition ratio (%), Eclipta prostrata (eclipta prostrata): 80%
- herbicidal activity inhibition ratio (%), Abutilon theophrasti (abutilon theophrasti): 80%
- herbicidal activity inhibition ratio (%), Echinochloa crusgalli (echinochloa crusgalli): 80%

Structure (SMILES): Cn1c(=O)n(-c2cccc(Cl)c2)c(=O)c2cc(C(=O)C3=C(O)CC(C)(C)CC3=O)ccc21 [Compound 4]
- herbicidal activity inhibition ratio (%), Digitaria sanguinalis (digitaria sanguinalis): 100%
- herbicidal activity inhibition ratio (%), Setaria viridis (setaria viridis): 90%
- herbicidal activity inhibition ratio (%), Amaranthus retroflexus (amaranthus retroflexus): 100%
- herbicidal activity inhibition ratio (%), Eclipta prostrata (eclipta prostrata): 90%
- herbicidal activity inhibition ratio (%), Abutilon theophrasti (abutilon theophrasti): 100%
- herbicidal activity inhibition ratio (%), Echinochloa crusgalli (echinochloa crusgalli): 85%

Structure (SMILES): Cn1c(=O)n(-c2cc(Cl)cc(Cl)c2)c(=O)c2cc(C(=O)C3=C(O)CCCC3=O)ccc21 [Compound 7]
- herbicidal activity inhibition ratio (%), Digitaria sanguinalis (digitaria sanguinalis): 70%
- herbicidal activity inhibition ratio (%), Setaria viridis (setaria viridis): 80%
- herbicidal activity inhibition ratio (%), Amaranthus retroflexus (amaranthus retroflexus): 90%
- herbicidal activity inhibition ratio (%), Eclipta prostrata (eclipta prostrata): 60%
- herbicidal activity inhibition ratio (%), Abutilon theophrasti (abutilon theophrasti): 100%
- herbicidal activity inhibition ratio (%), Echinochloa crusgalli (echinochloa crusgalli): 80%

Structure (SMILES): Cn1c(=O)n(-c2cc(Cl)cc(Cl)c2)c(=O)c2cc(C(=O)C3=C(O)CC(C)(C)CC3=O)ccc21 [Compound 8]
- herbicidal activity inhibition ratio (%), Digitaria sanguinalis (digitaria sanguinalis): 90%
- herbicidal activity inhibition ratio (%), Setaria viridis (setaria viridis): 85%
- herbicidal activity inhibition ratio (%), Amaranthus retroflexus (amaranthus retroflexus): 100%
- herbicidal activity inhibition ratio (%), Eclipta prostrata (eclipta prostrata): 80%
- herbicidal activity inhibition ratio (%), Abutilon theophrasti (abutilon theophrasti): 0%
- herbicidal activity inhibition ratio (%), Echinochloa crusgalli (echinochloa crusgalli): 75%

Structure (SMILES): Cn1c(=O)n(-c2ccc(F)cc2)c(=O)c2cc(C(=O)C3=C(O)CCCC3=O)ccc21 [Compound 9]
- herbicidal activity inhibition ratio (%), Digitaria sanguinalis (digitaria sanguinalis): 75%
- herbicidal activity inhibition ratio (%), Setaria viridis (setaria viridis): 100%
- herbicidal activity inhibition ratio (%), Amaranthus retroflexus (amaranthus retroflexus): 100%
- herbicidal activity inhibition ratio (%), Eclipta prostrata (eclipta prostrata): 95%
- herbicidal activity inhibition ratio (%), Abutilon theophrasti (abutilon theophrasti): 100%
- herbicidal activity inhibition ratio (%), Echinochloa crusgalli (echinochloa crusgalli): 85%

Structure (SMILES): Cn1c(=O)n(-c2cccc(F)c2)c(=O)c2cc(C(=O)C3=C(O)CCCC3=O)ccc21 [Compound 10]
- herbicidal activity inhibition ratio (%), Digitaria sanguinalis (digitaria sanguinalis): 75%
- herbicidal activity inhibition ratio (%), Setaria viridis (setaria viridis): 80%
- herbicidal activity inhibition ratio (%), Amaranthus retroflexus (amaranthus retroflexus): 85%
- herbicidal activity inhibition ratio (%), Eclipta prostrata (eclipta prostrata): 80%
- herbicidal activity inhibition ratio (%), Abutilon theophrasti (abutilon theophrasti): 100%
- herbicidal activity inhibition ratio (%), Echinochloa crusgalli (echinochloa crusgalli): 85%

Structure (SMILES): Cn1c(=O)n(-c2cccc(F)c2)c(=O)c2cc(C(=O)C3=C(O)CC(C)(C)CC3=O)ccc21 [Compound 11]
- herbicidal activity inhibition ratio (%), Digitaria sanguinalis (digitaria sanguinalis): 95%
- herbicidal activity inhibition ratio (%), Setaria viridis (setaria viridis): 80%
- herbicidal activity inhibition ratio (%), Amaranthus retroflexus (amaranthus retroflexus): 85%
- herbicidal activity inhibition ratio (%), Eclipta prostrata (eclipta prostrata): 85%
- herbicidal activity inhibition ratio (%), Abutilon theophrasti (abutilon theophrasti): 85%
- herbicidal activity inhibition ratio (%), Echinochloa crusgalli (echinochloa crusgalli): 85%

Structure (SMILES): Cn1c(=O)n(-c2ccccc2F)c(=O)c2cc(C(=O)C3=C(O)CCCC3=O)ccc21 [Compound 12]
- herbicidal activity inhibition ratio (%), Digitaria sanguinalis (digitaria sanguinalis): 80%
- herbicidal activity inhibition ratio (%), Setaria viridis (setaria viridis): 100%
- herbicidal activity inhibition ratio (%), Amaranthus retroflexus (amaranthus retroflexus): 80%
- herbicidal activity inhibition ratio (%), Eclipta prostrata (eclipta prostrata): 80%
- herbicidal activity inhibition ratio (%), Abutilon theophrasti (abutilon theophrasti): 85%
- herbicidal activity inhibition ratio (%), Echinochloa crusgalli (echinochloa crusgalli): 80%

Structure (SMILES): Cn1c(=O)n(-c2ccccc2F)c(=O)c2cc(C(=O)C3=C(O)CC(C)(C)CC3=O)ccc21 [Compound 13]
- herbicidal activity inhibition ratio (%), Digitaria sanguinalis (digitaria sanguinalis): 90%
- herbicidal activity inhibition ratio (%), Setaria viridis (setaria viridis): 100%
- herbicidal activity inhibition ratio (%), Amaranthus retroflexus (amaranthus retroflexus): 100%
- herbicidal activity inhibition ratio (%), Eclipta prostrata (eclipta prostrata): 90%
- herbicidal activity inhibition ratio (%), Abutilon theophrasti (abutilon theophrasti): 100%
- herbicidal activity inhibition ratio (%), Echinochloa crusgalli (echinochloa crusgalli): 90%

Structure (SMILES): Cc1ccc(-n2c(=O)c3cc(C(=O)C4=C(O)CCCC4=O)ccc3n(C)c2=O)cc1 [Compound 14]
- herbicidal activity inhibition ratio (%), Digitaria sanguinalis (digitaria sanguinalis): 75%
- herbicidal activity inhibition ratio (%), Setaria viridis (setaria viridis): 75%
- herbicidal activity inhibition ratio (%), Amaranthus retroflexus (amaranthus retroflexus): 100%
- herbicidal activity inhibition ratio (%), Eclipta prostrata (eclipta prostrata): 75%
- herbicidal activity inhibition ratio (%), Abutilon theophrasti (abutilon theophrasti): 75%
- herbicidal activity inhibition ratio (%), Echinochloa crusgalli (echinochloa crusgalli): 75%

Structure (SMILES): Cc1ccc(-n2c(=O)c3cc(C(=O)C4=C(O)CC(C)(C)CC4=O)ccc3n(C)c2=O)cc1 [Compound 15]
- herbicidal activity inhibition ratio (%), Digitaria sanguinalis (digitaria sanguinalis): 75%
- herbicidal activity inhibition ratio (%), Setaria viridis (setaria viridis): 75%
- herbicidal activity inhibition ratio (%), Amaranthus retroflexus (amaranthus retroflexus): 70%
- herbicidal activity inhibition ratio (%), Eclipta prostrata (eclipta prostrata): 60%
- herbicidal activity inhibition ratio (%), Abutilon theophrasti (abutilon theophrasti): 60%
- herbicidal activity inhibition ratio (%), Echinochloa crusgalli (echinochloa crusgalli): 70%

Structure (SMILES): Cc1ccc(-n2c(=O)c3cc(C(=O)C4=C(O)CC(C)CC4=O)ccc3n(C)c2=O)cc1 (stereo not drawn) [Compound 16]
- herbicidal activity inhibition ratio (%), Digitaria sanguinalis (digitaria sanguinalis): 100%
- herbicidal activity inhibition ratio (%), Setaria viridis (setaria viridis): 100%
- herbicidal activity inhibition ratio (%), Amaranthus retroflexus (amaranthus retroflexus): 70%
- herbicidal activity inhibition ratio (%), Eclipta prostrata (eclipta prostrata): 75%
- herbicidal activity inhibition ratio (%), Abutilon theophrasti (abutilon theophrasti): 70%
- herbicidal activity inhibition ratio (%), Echinochloa crusgalli (echinochloa crusgalli): 85%

Structure (SMILES): Cc1cccc(-n2c(=O)c3cc(C(=O)C4=C(O)CCCC4=O)ccc3n(C)c2=O)c1 [Compound 17]
- herbicidal activity inhibition ratio (%), Digitaria sanguinalis (digitaria sanguinalis): 75%
- herbicidal activity inhibition ratio (%), Setaria viridis (setaria viridis): 100%
- herbicidal activity inhibition ratio (%), Amaranthus retroflexus (amaranthus retroflexus): 100%
- herbicidal activity inhibition ratio (%), Eclipta prostrata (eclipta prostrata): 95%
- herbicidal activity inhibition ratio (%), Abutilon theophrasti (abutilon theophrasti): 70%
- herbicidal activity inhibition ratio (%), Echinochloa crusgalli (echinochloa crusgalli): 70%

Structure (SMILES): Cc1cccc(-n2c(=O)c3cc(C(=O)C4=C(O)CC(C)(C)CC4=O)ccc3n(C)c2=O)c1 [Compound 18]
- herbicidal activity inhibition ratio (%), Digitaria sanguinalis (digitaria sanguinalis): 90%
- herbicidal activity inhibition ratio (%), Setaria viridis (setaria viridis): 85%
- herbicidal activity inhibition ratio (%), Amaranthus retroflexus (amaranthus retroflexus): 100%
- herbicidal activity inhibition ratio (%), Eclipta prostrata (eclipta prostrata): 75%
- herbicidal activity inhibition ratio (%), Abutilon theophrasti (abutilon theophrasti): 75%
- herbicidal activity inhibition ratio (%), Echinochloa crusgalli (echinochloa crusgalli): 70%

Structure (SMILES): Cc1cccc(-n2c(=O)c3cc(C(=O)C4=C(O)CC(C)CC4=O)ccc3n(C)c2=O)c1 (stereo not drawn) [Compound 19]
- herbicidal activity inhibition ratio (%), Digitaria sanguinalis (digitaria sanguinalis): 85%
- herbicidal activity inhibition ratio (%), Setaria viridis (setaria viridis): 100%
- herbicidal activity inhibition ratio (%), Amaranthus retroflexus (amaranthus retroflexus): 100%
- herbicidal activity inhibition ratio (%), Eclipta prostrata (eclipta prostrata): 85%
- herbicidal activity inhibition ratio (%), Abutilon theophrasti (abutilon theophrasti): 75%
- herbicidal activity inhibition ratio (%), Echinochloa crusgalli (echinochloa crusgalli): 70%

Structure (SMILES): Cn1c(=O)n(-c2ccc(F)cc2)c(=O)c2cc(C(=O)C3=C(O)CC(C)(C)CC3=O)ccc21 [Compound 22]
- herbicidal activity inhibition ratio (%), Digitaria sanguinalis (digitaria sanguinalis): 95%
- herbicidal activity inhibition ratio (%), Setaria viridis (setaria viridis): 95%
- herbicidal activity inhibition ratio (%), Amaranthus retroflexus (amaranthus retroflexus): 100%
- herbicidal activity inhibition ratio (%), Eclipta prostrata (eclipta prostrata): 90%
- herbicidal activity inhibition ratio (%), Abutilon theophrasti (abutilon theophrasti): 100%
- herbicidal activity inhibition ratio (%), Echinochloa crusgalli (echinochloa crusgalli): 80%

Structure (SMILES): Cn1c(=O)n(-c2cccc(Br)c2)c(=O)c2cc(C(=O)C3=C(O)CC(C)(C)CC3=O)ccc21 [Compound 24]
- herbicidal activity inhibition ratio (%), Digitaria sanguinalis (digitaria sanguinalis): 60%
- herbicidal activity inhibition ratio (%), Setaria viridis (setaria viridis): 10%
- herbicidal activity inhibition ratio (%), Amaranthus retroflexus (amaranthus retroflexus): 80%
- herbicidal activity inhibition ratio (%), Eclipta prostrata (eclipta prostrata): 83%
- herbicidal activity inhibition ratio (%), Abutilon theophrasti (abutilon theophrasti): 93%
- herbicidal activity inhibition ratio (%), Echinochloa crusgalli (echinochloa crusgalli): 30%

Structure (SMILES): Cn1c(=O)n(-c2ccc(Br)cc2)c(=O)c2cc(C(=O)C3=C(O)CCCC3=O)ccc21 [Compound 25]
- herbicidal activity inhibition ratio (%), Digitaria sanguinalis (digitaria sanguinalis): 80%
- herbicidal activity inhibition ratio (%), Setaria viridis (setaria viridis): 35%
- herbicidal activity inhibition ratio (%), Amaranthus retroflexus (amaranthus retroflexus): 95%
- herbicidal activity inhibition ratio (%), Eclipta prostrata (eclipta prostrata): 83%
- herbicidal activity inhibition ratio (%), Abutilon theophrasti (abutilon theophrasti): 80%
- herbicidal activity inhibition ratio (%), Echinochloa crusgalli (echinochloa crusgalli): 80%

Structure (SMILES): Cn1c(=O)n(-c2ccc(Br)cc2)c(=O)c2cc(C(=O)C3=C(O)CC(C)(C)CC3=O)ccc21 [Compound 26]
- herbicidal activity inhibition ratio (%), Digitaria sanguinalis (digitaria sanguinalis): 93%
- herbicidal activity inhibition ratio (%), Setaria viridis (setaria viridis): 30%
- herbicidal activity inhibition ratio (%), Amaranthus retroflexus (amaranthus retroflexus): 100%
- herbicidal activity inhibition ratio (%), Eclipta prostrata (eclipta prostrata): 88%
- herbicidal activity inhibition ratio (%), Abutilon theophrasti (abutilon theophrasti): 100%
- herbicidal activity inhibition ratio (%), Echinochloa crusgalli (echinochloa crusgalli): 85%
